From US10829520B2, “Beta-hairpin peptidomimetics” (POLYPHOR AG, priority 2015, dated 2020)
Where a SMILES comes first, the peptide text is derived from it. Bridges are numbered along the chain shown (N, C = ends). Roman numbers before positions name the chains, in order. [ ]: non-standard residue; d: D form. Hyp = O=C(O)[C@@H]1C[C@@H](O)CN1; dDab = NCC[C@@H](N)C(=O)O; Orn = NCCC[C@H](N)C(=O)O; Dab = NCC[C@H](N)C(=O)O; dAze = O=C(O)[C@H]1CCN1

Tests used:
Format in all cases: cell-based
[1] = test system: Acinetobacter baumannii DSM 30008; conditions: DSM 30008
Outline: (§1)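 MIC in μg/mL; CLSI microdilution; cation-adjusted Mueller-Hinton II with Polysorbate 80 (0.002%); 10^6 CFU/mL; 35° C, 18-20 h.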

[2] = test system: Klebsiella pneumoniae 968733; conditions: 968733
[3] = test system: Pseudomonas aeruginosa ATCC 27853; conditions: ATCC 27853
Outline: as §1

[4] = test system: Acinetobacter baumannii 872842; conditions: 872842
[5] = test system: Escherichia coli ATCC 25922; conditions: ATCC 25922
Outline: as §1

[6] = test system: Klebsiella pneumoniae SSI #3010; conditions: SSI #3010
Outline: as §1

[7] = test system: Escherichia coli 926415; conditions: 926415
[8] = test system: human red blood cells (hRBC); assay: Hemolysis of human red blood cells; conditions: red cells of human, 1 h, 100
Outline: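 Fresh human red blood cells are washed in PBS, then shaken with peptide (100 μg/mL) at 37° C. for 1 h, final erythrocyte density about 0.9×10^9 cells/mL. After centrifugation, diluted supernatants are read at 540 nm against buffer (0%) and Triton X-100 (100%) lysis controls.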

| Compound | Acinetobacter baumannii DSM 30008 MIC [1] | Klebsiella pneumoniae 968733 MIC [2] | Pseudomonas aeruginosa ATCC 27853 MIC [3] | Acinetobacter baumannii 872842 MIC [4] | Escherichia coli ATCC 25922 MIC [5] | Klebsiella pneumoniae SSI #3010 MIC [6] | Escherichia coli 926415 MIC [7] | Hemolysis at 100 μg/mL [8] |
| --- | --- | --- | --- | --- | --- | --- | --- | --- |
| CC(C)C[C@@H]1NC(=O)[C@@H](CC(C)C)NC(=O)[C@H](CCN)NC(=O)[C@@H](NC(=O)[C@H](CCN)NC(=O)[C@@H](NC(=O)[C@H](CCN)NC(=O)CC[C@@H]2NC(=O)[C@H](CCN)NC(=O)[C@H](Cc3ccc(O)cc3)NC(=O)[C@H](CO)NC(=O)[C@H](CC(C)C)NC(=O)[C@@H]3CCCN3C(=O)[C@H]3CCCN3C(=O)[C@H](CO)NC(=O)[C@H]([C@@H](C)O)NC(=O)[C@H](C(C)C)NC(=O)[C@H](CCN)NC(=O)[C@H](Cc3c[nH]c4ccccc34)NC(=O)[C@H](CCN)NC(=O)[C@@H](CCN)NC2=O)[C@@H](C)O)CCNC(=O)[C@H]([C@@H](C)O)NC(=O)[C@H](CCN)NC(=O)[C@H](CCN)NC1=O [Ex. 92] (I: cyclo(W[Dab]VTS[dP]PLSY[Dab]E[dDab][Dab]) / II: [Dab]T[Dab][Dab][Dab][dL]L[Dab][Dab]T; amide I:12-II:N; lactam II:4-II:C) | 0.25 µg/mL | 0.5 µg/mL | 0.25 µg/mL | 0.5 µg/mL | 0.125 µg/mL | 0.25 µg/mL | 0.5 µg/mL | 1% |
| CC(C)C[C@@H]1NC(=O)[C@@H](CC(C)C)NC(=O)[C@H](CCN)NC(=O)[C@@H](NC(=O)[C@H](CCN)NC(=O)[C@@H](NC(=O)[C@H](CCN)NC(=O)CC[C@@H]2NC(=O)[C@H](CCN)NC(=O)[C@H](Cc3ccc(O)cc3)NC(=O)[C@H]([C@@H](C)O)NC(=O)[C@H](C(C)C)NC(=O)[C@@H]3C[C@@H](O)CN3C(=O)[C@H]3CCN3C(=O)[C@H](CO)NC(=O)[C@H](CO)NC(=O)[C@H](C(C)C)NC(=O)[C@H](CCN)NC(=O)[C@H](Cc3c[nH]c4ccccc34)NC(=O)[C@H](CCN)NC(=O)[C@@H](CCN)NC2=O)[C@@H](C)O)CCNC(=O)[C@H]([C@@H](C)O)NC(=O)[C@H](CCN)NC(=O)[C@H](CCN)NC1=O [Ex. 93] (I: cyclo([Dab]E[dDab][Dab]W[Dab]VSS[dAze][Hyp]VTY) / II: [Dab]T[Dab][Dab][Dab][dL]L[Dab][Dab]T; amide I:2-II:N; lactam II:4-II:C) | 2 µg/mL | 8 µg/mL | 0.25 µg/mL | 1 µg/mL | 0.5 µg/mL | 0.25 µg/mL | 2 µg/mL | 1% |
| CC(C)C[C@@H]1NC(=O)[C@@H](CC(C)C)NC(=O)[C@H](CCN)NC(=O)[C@@H](NC(=O)[C@H](CCN)NC(=O)[C@@H](NC(=O)[C@H](CCN)NC(=O)CC[C@@H]2NC(=O)CNC(=O)[C@H](CCCN)NC(=O)[C@H](CCN)NC(=O)[C@H](Cc3ccc(O)cc3)NC(=O)[C@H](CO)NC(=O)[C@H](CC(C)C)NC(=O)[C@@H]3CCCN3C(=O)[C@H]3CCCN3C(=O)[C@H](CO)NC(=O)[C@H]([C@@H](C)O)NC(=O)[C@H](C(C)C)NC(=O)[C@H](CCN)NC(=O)[C@H](Cc3c[nH]c4ccccc34)NC2=O)[C@@H](C)O)CCNC(=O)[C@H]([C@@H](C)O)NC(=O)[C@H](CCN)NC(=O)[C@H](CCN)NC1=O [Ex. 94] (I: cyclo(LSY[Dab][Orn]GEW[Dab]VTS[dP]P) / II: [Dab]T[Dab][Dab][Dab][dL]L[Dab][Dab]T; amide I:7-II:N; lactam II:4-II:C) | 0.0625 µg/mL | 0.5 µg/mL | 0.25 µg/mL | 0.25 µg/mL | 0.0625 µg/mL | 0.125 µg/mL | 1 µg/mL | 1% |
